From patent US20170119727A1, “A THERAPEUTIC PROTOCOL FOR TREATING OVARIAN CANCER” (Bionomics Limited, priority 2014, published 2017) come the findings set out here.

The test system of data set [1] is Human umbilical vein endothelial cells (HUVECs), tumour type activated endothelial cells. Put plainly: Proliferation assay - activated endothelium (MTT). In kind it is cell-based. The conditions noted are these: for potency against activated (tumor) versus quiescent (normal) endothelial cells: activated compared with quiescent endothelial cells; for IC50: Homo sapiens, HUVEC, tumour type activated endothelial cells (HUVECs), 48 hrs, read-out: HUBECs Tum: IC50. Here is the method:
Proliferation Assay—Activated Endothelium:
(§1) Human umbilical vein endothelial cells (CC-2519, Clonetics) were plated at 2500 cells/well in EGM2 (CC-3162, Clonetics) in a 96 well plate in triplicate. Cells were cultured overnight at 37° C. 5% CO2. Medium was subsequently replaced with fresh medium including the compound or negative control. Cells were cultured for a period of 48 hrs. An MTT assay was performed to measure changes in cell numbers. Briefly, 20 μl of MTT reagent was added to cells containing 100 μl of EGM2 and incubated at 37° C. for 2 hours. Absorbance was measured at 492 nm.

The test system of data set [2] is MCF-7. Put plainly: Growth inhibition of cancer cell line (Sulforhodamine B or Systmex cell counting assay). In kind it is cell-based. The conditions noted are these: Homo sapiens, MCF7, concentration required to inhibit net cell growth by 50%.
Data set [3] deals with Human umbilical vein endothelial cells (HUVECs), normal quiescent type endothelial cells. Put plainly: Proliferation assay - quiescent endothelium (MTT). The conditions noted are these: HUVEC, 48 hrs, read-out: HUBECs Norm: IC50. It counts as cell-based. The procedure:
Proliferation Assay—Quiescent Endothelium:
as §1, with “15000” for “2500”, “EBM2 (CC-3156, Clonetics)+0.5% FBS (CC-4101A, Clonetics)+GA-1000 (CC-4381A,” for “EGM2 (CC-3162,”, “EBM2+0.5% FBS” for “EGM2”

The subject of data set [4] is tubulin. In words: Tubulin polymerization inhibition. It counts as biochemical.
The subject of data set [5] is MDA-MB-231 solid orthotopic tumours. Put plainly: Tumour growth inhibition, single agent. In kind it is in vivo, Balb/c nu/nu mice. The conditions noted are these: Example 2 40 mg/kg i.v., two cycles; vs vehicle; significant from day 4 (p<0.001) through Day 70. The procedure:
Balb/c nu/nu mice bearing MDA-MB-231 solid orthotopic tumours were treated with compound Example 2 at 40 mg/kg. Animals were i.v. dosed with a total of two cycles of Example 2 treatment. Each cycle was dosing on […] followed by a three week no-dosing period. Tumour growth represented as a ratio to initial tumour volume is shown over a total of 72-days.
Tumour growth as well as animal health were monitored for up to 72 days post-day 1 of treatment. […] Significant differences in tumour growth between Example 2 treated (n=64) and vehicle treated (n=20) animals were observed as early as day 4 (p<0.001; unpaired t-test; Prism® analysis) through to Day 70.

For data set [6], the system named is cisplatin resistant A2780Cis solid orthotopic tumours. Put plainly: Tumour growth inhibition, combination with carboplatin and gemcitabine. In kind it is in vivo, Balb/c nu/nu mice. The conditions noted are these: Example 2 24 mg/kg + carboplatin 50 mg/kg + gemcitabine 12.5 mg/kg i.v.; triplet compared to carboplatin/gemcitabine doublet; up to 21 days. The procedure: (a) Example 2 Treatment in Combination with Carboplatin (Combination Partner (b)) and Gemcitabine (Combination Partner (c)).
Balb/c nu/nu mice bearing cisplatin resistant A2780Cis solid orthotopic tumours were treated with compound Example 2 at 24 mg/kg, carboplatin at 50 mg/kg and gemcitabine at 12.5 mg/kg. Animals were i.v. dosed with a single dose of carboplatin, two weekly doses of Example 2 and two weekly doses of gemcitabine. Each cycle of Example 2 and gemcitabine was dosing on days 1 and 8; and each cycle of carboplatin was dosing on day 1.
Tumour growth as well as animal health were monitored for up to 21 days post-day 1 of treatment.

The nature of data set [7]: Phase I clinical trial: dose limiting toxicities, adverse events, recommended dose. It counts as in vivo, female ovarian cancer subjects (patients). From the text:
(§2) A standard 3+3 Phase I design was used to determine the recommended dose of compound Example 2 with combination partners (b) and (c). In addition, this design also facilitated the determination of secondary endpoints including progression-free survival (PFS) and adverse event rates. Further correlative endpoints that measure the effect of the drug combination on compound Example 2 pharmacokinetics (PK) were also captured in this trial design.
(§3) The patient cohort selected for this Phase I clinical trial were female ovarian cancer subjects with a PFS interval of ≧4 months after first or second line platinum-based chemotherapy.
(§4) The dosing regime is outlined in FIG. 4. This protocol included compound Example 2 escalation at 12 or 16 mg/m^2 IV on days 2 and 9, carboplatin AUC4 on day 1, gemcitabine escalation 800 and 1000 mg/m^2 days 1 and 8. Treatment proceeded across a 21 day cycle for a maximum of 6 cycles. Treatment was followed by single agent maintenance with compound Example 2 at 16 mg/m^2 for a maximum of 6 additional cycles.
(§5) The key outcomes of this trial include the identification of the maximum tolerated dose (MTD) of compound Example 2 and combination partners (b) and (c), dose limiting toxicities and patient response measured according to CA125 levels or RECIST. Additional plasma biomarker studies that measure concentrations of ferritin, interleukin-8, interleukin-16 and macrophage inflammatory protein-1β provide correlative data relating to the PK of compound Example 2.

The subject of data set [8] is recurrent ovarian cancer. Put plainly: Phase I clinical trial: objective response (CA125 or RECIST). In kind it is in vivo, female ovarian cancer subjects (patients). The conditions noted are these: combination with carboplatin and gemcitabine.
Description: as §2, §3, §4, §5

The mark [9] stands for this setting: Dose level 1 (n = 6), combination with carboplatin and gemcitabine, all cycles.
Setting [10] is: Dose level 2a (n = 3), combination with carboplatin and gemcitabine, all cycles.
The mark [11] stands for this setting: Dose level 2b (n = 60 as printed), combination with carboplatin and gemcitabine, all cycles.

Turning to `COc1ccc(/C=C\c2cc(OC)c(OC)c(OC)c2)cc1O` [Combretastatin A4], the “potency against activated (tumor) versus quiescent (normal) endothelial cells” value in data set [1] is “equally potent against quiescent and activated endothelial cells”.

For orientation: IC50 means the point on the concentration scale where inhibition reaches its midpoint. `COc1ccc(/C=C\c2cc(OC)c(OC)c(OC)c2)cc1O` [Comparator A]: the IC50 in data set [2] is 5 nM; in data set [1] it was 1 to 10 nM; in data set [3] it was 1 to 10 nM.

Take `COc1ccc(/C=C\c2cc(OC)c(OC)c(OC)c2)cc1OP(=O)(O)O` [Comparator B]: the IC50 was 5 nM in data set [2], 1 to 10 nM in data set [1] and 1 to 10 nM in data set [3].

As for `COc1ccc2c(C(=O)c3cc(OC)c(OC)c(OC)c3)coc2c1` [Comparator C], the IC50 in data set [2] is 55 nM; in data set [1] it was 10 to 100 nM; in data set [3] it was 10 to 100 nM.

For the compound `COc1ccc2c(C(=O)c3cc(OC)c(OC)c(OC)c3)c(Br)oc2c1` [Comparator D], the IC50 in data set [2] is 500 nM; in data set [1], 100 to 1000 nM; in data set [3] it was 100 to 1000 nM.

Regarding `COc1cc(C(=O)c2c(C)oc3c(O)c(OC)ccc23)cc(OC)c1OC` [Example 1, 2-Methyl-7-hydroxy-3-(3,4,5-trimethoxybenzoyl)-6-methoxybenzofuran], the results for the IC50 in data set [2], in data set [1] and in data set [3] were 2 nM, 0.1 to 1 nM and 10 to 100 nM, respectively. Further, in data set [1], the “potency against activated (tumor) versus quiescent (normal) endothelial cells” value is “high potency towards tumor endothelial cells (activated) over normal endothelial cells (quiescent)”. Further, the tubulin polymerization inhibition result in data set [4] is “potent tubulin polymerization inhibitor”.

As for `COc1cc(C(=O)c2c(C)oc3c(OP(=O)([O-])[O-])c(OC)ccc23)cc(OC)c1OC.[Na+].[Na+]` [Example 2, Disodium 6-methoxy-2-methyl-3-(3,4,5-trimethoxybenzoyl)benzofuran-7-yl phosphate], the “Tumour growth (ratio to initial tumour volume)” value in data set [5] is “tumour growth inhibition”. In addition, in data set [6], the “Tumour growth (tumor volume)” value is on record as “tumour growth inhibition”. For the same compound, in data set [7] (setting [9]), the “Hypertension Gr 3” value is on record as 1, the “Neutropenia Gr 3” value is reported as 3 and the “Neutropenia Gr 4” value stood at 2. The “Number of DLTs” value in data set [7] (Dose level 1: Example 2 12 mg/m2 + carboplatin AUC4 + gemcitabine 800 mg/m2, 6 patients) was determined as 1. In data set [7] (setting [10]), the “Hypersensitivity Gr 3” value is listed as 1, the “Neutropenia Gr 3” value worked out at 1, the “Neutropenia Gr 4” value is given as 2 and the “Thrombocytopenia Gr 4” value was 2. For the same compound, the “Number of DLTs” value in data set [7] (Dose level 2a: Example 2 16 mg/m2 + carboplatin AUC4 + gemcitabine 800 mg/m2, 3 patients) is recorded as 2. For the same compound, in data set [7] (setting [11]), the “Anaemia Gr 3” value came to 1, the “Neutropenia Gr 3” value is recorded as 5 and the “Thrombocytopenia Gr 3” value was determined as 2. In data set [7] (Dose level 2b: Example 2 12 mg/m2 + carboplatin AUC4 + gemcitabine 1000 mg/m2), the “adverse events or dose limiting toxicities” value is on record as “no adverse events or dose limiting toxicities were observed”. Moreover, the “Number of DLTs” value in data set [7] (Dose level 2b: Example 2 12 mg/m2 + carboplatin AUC4 + gemcitabine 1000 mg/m2, 6 patients) was 0. For the same compound, the safety and tolerability result in data set [7] (combination with combination partners (b) carboplatin and (c) gemcitabine, subjects with recurrent ovarian cancer) is “safe and tolerable”. In data set [7] (with carboplatin AUC4 and gemcitabine 1000 mg/m^2 (dose level 2b)), the recommended dose is recorded as 12 mg/m^2. Moreover, in data set [8] (Dose level 1, 6 accrued), the “Objective responses (CA125 or RECIST) %” value turned out to be 68% and the “Objective responses (CA125 or RECIST) N” value was found to be 4. In data set [8] (Dose level 2a, 3 accrued), the “Objective responses (CA125 or RECIST) %” value is 33% and the “Objective responses (CA125 or RECIST) N” value was 1. Moreover, in data set [8] (Dose level 2b, 6 accrued), the “Objective responses (CA125 or RECIST) %” value is recorded as 83% and the “Objective responses (CA125 or RECIST) N” value is recorded as 5. For the same compound, in data set [8] (all dose levels, 15 accrued), the “Objective responses (CA125 or RECIST) %” value was 68% and the “Objective responses (CA125 or RECIST) N” value is listed as 10.
